≈ marks a conversion by molar mass, not a printed value. Where two headings read alike, the source gives them in different places.
Columns and labels:
[1] = system: E. coli ATCC 25922 (none); assay: MIC microbroth dilution; β-lactamase class none; type: cell-based; conditions: Escherichia coli, ATCC25922, E. coli ATCC 25922, Cefepime alone, read-out: MIC
Procedure: (§1) The in vitro activities of the antibiotics were determined by the microbroth dilution method as recommended by the National Committee for Clinical Laboratory Standards (NCCLS). (NCCLS. 2000. Methods for Dilution Antimicrobial Susceptibility Tests for Bacteria That Grow Aerobically; Approved Standards: M7-A5, vol. 19. National Committee for Clinical Laboratory Standards, Villanova, Pa.). Mueller-Hinton II broth (MHBII)(BBL Cockeysville, Md.), was used for the testing procedure. […]. The plates were incubated for 18-22 hours at 35° C. in ambient air.

[2] = system: E. coli GC 2804 (imp); assay: MIC microbroth dilution; β-lactamase class none; type: cell-based; conditions: Escherichia coli, Cefepime alone
Procedure: as §1

[3] = system: E. coli GC 2844 (none); assay: MIC microbroth dilution; β-lactamase class none; type: cell-based; conditions: Cefepime alone
Procedure: as §1

[4] = system: E. coli GC 2847 (TEM-1); assay: MIC microbroth dilution; β-lactamase class A; type: cell-based; conditions: Escherichia coli, Cefepime alone, read-out: MIC
Procedure: as §1

[5] = system: E. coli GC 1684 (TEM-10); assay: MIC microbroth dilution; β-lactamase class A (ESBL); type: cell-based; conditions: Cefepime alone
Procedure: as §1

[6] = system: E. coli GC 1995 (TEM-10); assay: as above; type: cell-based; conditions: Escherichia coli, Cefepime alone, read-out: MIC
Procedure: as §1

[7] = system: E. coli GC 2017 (TEM-10 + pl 6.3; 8.1); assay: as above; type: cell-based; conditions: Cefepime alone
Procedure: as §1

[8] = system: E. coli GC 2300 (TEM-28); assay: as above; type: cell-based; conditions: Cefepime alone
Procedure: as §1

[9] = system: E. coli GC 2400 (TEM-43); assay: as above; type: cell-based; conditions: Cefepime alone
Procedure: as §1

[10] = system: E. coli GC 6368 (SHV-7); assay: as above; type: cell-based; conditions: Escherichia coli, Cefepime alone, read-out: MIC
Procedure: as §1

[11] = system: S. typhimurium GC 4197 CTX-M-5; assay: as above; type: cell-based; conditions: Cefepime alone
Procedure: as §1

[12] = system: K. pn GC 1963 (TEM-10 + SHV-1 + SHV-ESBL); assay: MIC microbroth dilution; β-lactamase class A, A (ESBL); type: cell-based, K. pneumoniae; conditions: Cefepime alone
Procedure: as §1

[13] = system: K. pn GC 6494 (TEM-1 + SHV-5); assay: as above; type: cell-based, K. pneumoniae; conditions: Klebsiella pneumoniae, Cefepime alone, read-out: MIC
Procedure: as §1

[14] = system: K. pn GC 6657 (TEM-1 + SHV-27); assay: as above; type: cell-based, K. pneumoniae; conditions: Cefepime alone
Procedure: as §1

[15] = system: E. coli GC 1499 (TEM-4 + TEM-1); assay: as above; type: cell-based; conditions: Cefepime alone
Procedure: as §1

[16] = system: E. coli GC 1695 (TEM-1 + TEM-10); assay: as above; type: cell-based; conditions: Cefepime alone
Procedure: as §1

[17] = system: E. coli GC 2015 (TEM-10 + SHV-1); assay: as above; type: cell-based; conditions: Cefepime alone
Procedure: as §1

[18] = system: E. coli GC 2146 (TEM-1; SHV-7); assay: as above; type: cell-based; conditions: Cefepime alone
Procedure: as §1

[19] = system: E. coli GC 5901 (TEM-1 and SHV-8); assay: as above; type: cell-based; conditions: Cefepime alone
Procedure: as §1

[20] = system: E. coli GC 6260 (TEM-1 + SHV-5); assay: as above; type: cell-based; conditions: Cefepime alone
Procedure: as §1

[21] = system: K. pneumoniae GC 7632 TEM-1 KPC-2, SHV-7, SHV-12; assay: MIC microbroth dilution; β-lactamase class A, A (Cb'ase), A (ESBL); type: cell-based; conditions: Cefepime alone
Procedure: as §1

[22] = system: P. aeruginosa PT 8411 PTZ-R; assay: MIC microbroth dilution; type: cell-based; conditions: Cefepime alone
Procedure: as §1

[23] = system: P. aeruginosa PT 8503 PTZ-R; assay: MIC microbroth dilution; type: cell-based; conditions: Cefepime alone
Procedure: as §1

[24] = system: P. aeruginosa PT 9236 PTZ-R; assay: MIC microbroth dilution; type: cell-based; conditions: Cefepime alone
Procedure: as §1

[25] = system: P. aeruginosa PT 9587 PTZ-R; assay: MIC microbroth dilution; type: cell-based; conditions: Cefepime alone
Procedure: as §1

[26] = system: C. freundii GC 4171 TEM-1 + InducibleAmpC; assay: MIC microbroth dilution; β-lactamase class A, C; type: cell-based
Procedure: as §1

[27] = system: E. aerogenes GC 7036 TEM-24, Amp C inducable; assay: MIC microbroth dilution; β-lactamase class A (ESBL), C; type: cell-based; conditions: Klebsiella aerogenes, Cefepime alone, read-out: MIC
Procedure: as §1

[28] = system: E. aerogenes GC 7039 TEM-4, Amp C inducable; assay: as above; type: cell-based; conditions: Klebsiella aerogenes, Cefepime alone, read-out: MIC
Procedure: as §1

[29] = system: E. cloacae GC 7052 SHV-5, Amp C inducable; assay: as above; type: cell-based; conditions: Cefepime alone
Procedure: as §1

[30] = system: E. cloacae GC 7065 TEM-26, SHV-12 Amp C inducable; assay: as above; type: cell-based; conditions: Enterobacter cloacae, Cefepime alone, read-out: MIC
Procedure: as §1

[31] = system: M. morganii GC 1617 TEM-10 + inducible AmpC; assay: as above; type: cell-based; conditions: Cefepime alone
Procedure: as §1

[32] = system: K. pn GC 2391 (pl 5.4; 5.6; 7.6; 8.7 B-lactamases); assay: MIC microbroth dilution; β-lactamase class A, A (ESBL), C; type: cell-based, K. pneumoniae; conditions: Klebsiella pneumoniae, Cefepime alone, read-out: MIC
Procedure: as §1

[33] = system: E. coli GC 4971 OXA-1, TEM-1; assay: MIC microbroth dilution; β-lactamase class A, D; type: cell-based; conditions: Escherichia coli, Cefepime alone, read-out: MIC
Procedure: as §1

[34] = system: A. baumannii PT 8321 PTZ-R; assay: MIC microbroth dilution; β-lactamase class not determined; type: cell-based; conditions: Cefepime alone
Procedure: as §1

[35] = system: A. baumannii PT 9158 PTZ-R; assay: as above; type: cell-based; conditions: Cefepime alone
Procedure: as §1

[36] = Escherichia coli, control of Compound 1 test, read-out: MIC
[37] = Klebsiella pneumoniae, control of Compound 1 test, read-out: MIC

Compound: CO/N=C(\C(=O)N[C@@H]1C(=O)N2C(C(=O)[O-])=C(C[N+]3(C)CCCC3)CS[C@H]12)c1csc(N)n1 [Cefepime, reference compound]
- MIC ([1]; control of Compound 1 test): 0.03 µg/mL (≈ 0.0624 µM)
- MIC ([1]; control of Compound 2 test): 0.06 µg/mL (≈ 0.125 µM)
- MIC ([2]; control of Compound 1 test): 0.03 µg/mL (≈ 0.0624 µM)
- MIC ([2]; control of Compound 2 test): < 0.015 µg/mL
- MIC ([3]; control of Compound 2 test): 0.06 µg/mL (≈ 0.125 µM)
- MIC [3, 36]: 0.06 µg/mL (≈ 0.125 µM)
- MIC ([4]; control of Compound 1 test): 0.12 µg/mL (≈ 0.25 µM)
- MIC ([4]; control of Compound 2 test): 0.06 µg/mL (≈ 0.125 µM)
- MIC ([5]; control of Compound 2 test): >16 µg/mL
- MIC [5, 36]: > 16 µg/mL
- MIC ([6]; control of Compound 1 test): 8 µg/mL (≈ 16.6 µM)
- MIC ([6]; control of Compound 2 test): 16 µg/mL (≈ 33.3 µM)
- MIC ([7]; control of Compound 2 test): >16 µg/mL
- MIC [7, 36]: > 16 µg/mL
- MIC ([8]; control of Compound 2 test): 16 µg/mL (≈ 33.3 µM)
- MIC [8, 36]: 16 µg/mL (≈ 33.3 µM)
- MIC ([9]; control of Compound 2 test): >16 µg/mL
- MIC [9, 36]: > 16 µg/mL
- MIC ([10]; control of Compound 1 test): 1 µg/mL (≈ 2.08 µM)
- MIC ([10]; control of Compound 2 test): 2 µg/mL (≈ 4.16 µM)
- MIC ([11]; control of Compound 2 test): >16 µg/mL
- MIC ([11]; Salmonella enterica, control of Compound 1 test, read-out: MIC): > 16 µg/mL
- MIC ([12]; control of Compound 2 test): >16 µg/mL
- MIC [12, 37]: > 16 µg/mL
- MIC ([13]; control of Compound 1 test): 4 µg/mL (≈ 8.32 µM)
- MIC ([13]; control of Compound 2 test): 2 µg/mL (≈ 4.16 µM)
- MIC ([14]; control of Compound 2 test): 0.12 µg/mL (≈ 0.25 µM)
- MIC [14, 37]: 0.12 µg/mL (≈ 0.25 µM)
- MIC ([15]; control of Compound 2 test): >16 µg/mL
- MIC [15, 36]: > 16 µg/mL
- MIC ([16]; control of Compound 2 test): >16 µg/mL
- MIC [16, 36]: > 16 µg/mL
- MIC ([17]; control of Compound 2 test): >16 µg/mL
- MIC [17, 36]: > 16 µg/mL
- MIC ([18]; control of Compound 2 test): >16 µg/mL
- MIC [18, 36]: > 16 µg/mL
- MIC ([19]; control of Compound 2 test): >16 µg/mL
- MIC [19, 36]: > 16 µg/mL
- MIC ([20]; control of Compound 2 test): >16 µg/mL
- MIC [20, 36]: > 16 µg/mL
- MIC ([21]; control of Compound 2 test): >16 µg/mL
- MIC [21, 37]: > 16 µg/mL
- MIC ([22]; control of Compound 2 test): 16 µg/mL (≈ 33.3 µM)
- MIC ([22]; Pseudomonas aeruginosa, PT8411PTZR, control of Compound 1 test, read-out: MIC): 16 µg/mL (≈ 33.3 µM)
- MIC ([23]; control of Compound 2 test): 8 µg/mL (≈ 16.6 µM)
- MIC ([23]; Pseudomonas aeruginosa, PT8503PTZR, control of Compound 1 test, read-out: MIC): 8 µg/mL (≈ 16.6 µM)
- MIC ([24]; control of Compound 2 test): >16 µg/mL
- MIC ([24]; Pseudomonas aeruginosa, PT9236PTZR, control of Compound 1 test, read-out: MIC): > 16 µg/mL
- MIC ([25]; control of Compound 2 test): 4 µg/mL (≈ 8.32 µM)
- MIC ([25]; Pseudomonas aeruginosa, PT9587PTZR, control of Compound 1 test, read-out: MIC): 4 µg/mL (≈ 8.32 µM)
- MIC ([26]; C. freundii GC 4171, Cefepime alone, control of Compound 2 test): 4 µg/mL (≈ 8.32 µM)
- MIC ([26]; Citrobacter freundii): 4 µg/mL (≈ 8.32 µM)
- MIC ([27]; control of Compound 1 test): 2 µg/mL (≈ 4.16 µM)
- MIC ([27]; control of Compound 2 test): 4 µg/mL (≈ 8.32 µM)
- MIC ([28]; control of Compound 1 test): 16 µg/mL (≈ 33.3 µM)
- MIC ([28]; control of Compound 2 test): > 16 µg/mL
- MIC ([29]; control of Compound 2 test): 16 µg/mL (≈ 33.3 µM)
- MIC ([29]; Enterobacter cloacae, control of Compound 1 test, read-out: MIC): 16 µg/mL (≈ 33.3 µM)
- MIC ([30]; control of Compound 1 test): 4 µg/mL (≈ 8.32 µM)
- MIC ([30]; control of Compound 2 test): 16 µg/mL (≈ 33.3 µM)
- MIC ([31]; control of Compound 2 test): 0.25 µg/mL (≈ 0.52 µM)
- MIC ([31]; Morganella morganii, control of Compound 1 test, read-out: MIC): 0.25 µg/mL (≈ 0.52 µM)
- MIC ([32]; control of Compound 1 test): 16 µg/mL (≈ 33.3 µM)
- MIC ([32]; control of Compound 2 test): 4 µg/mL (≈ 8.32 µM)
- MIC ([33]; control of Compound 1 test): 2 µg/mL (≈ 4.16 µM)
- MIC ([33]; control of Compound 2 test): 4 µg/mL (≈ 8.32 µM)
- MIC ([34]; Acinetobacter baumannii, PT8321PTZR, control of Compound 1 test, read-out: MIC): > 16 µg/mL
- MIC ([34]; control of Compound 2 test): >16 µg/mL
- MIC ([35]; Acinetobacter baumannii, PT9158PTZR, control of Compound 1 test, read-out: MIC): > 16 µg/mL
- MIC ([35]; control of Compound 2 test): >16 µg/mL

Reference: patent US20070129344A1, “Bicyclic 6-alkylidene-penem beta-lactamase inhibitors and beta-lactam antibiotic combination: a broad spectrum antibiotic” (priority 2005, published 2007)
